Experiments:
Assay in all cases: relative viability (nuclei count vs DMSO), 5 days (fraction); higher = more cells survive
GSK126 + Lapatinib = compound: CC[C@H](C)N1C=C(C2=C(C=C(C=C21)C3=CN=C(C=C3)N4CCNCC4)C(=O)NCC5=C(C=C(NC5=O)C)C)C [GSK126] + CS(=O)(=O)CCNCc1ccc(-c2ccc3ncnc(Nc4ccc(OCc5cccc(F)c5)c(Cl)c4)c3c2)o1 [Lapatinib] (partner 2 µM)
Outline: (§1)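 Relative viability equals treated-well nuclei counts divided by vehicle-well nuclei counts. Counts came from 4× images of lung cancer cell lines grown in 1536-well plates for 5 days after pin-tool dosing on the day after seeding. Dosing used one drug alone or a fixed anchor-drug dose plus five library-drug doses (not always all listed) in √10 steps, and values are medians of duplicate plates.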

GSK126 + Crizotinib = compound: CC[C@H](C)N1C=C(C2=C(C=C(C=C21)C3=CN=C(C=C3)N4CCNCC4)C(=O)NCC5=C(C=C(NC5=O)C)C)C [GSK126] + C[C@@H](Oc1cc(-c2cnn(C3CCNCC3)c2)cnc1N)c1c(Cl)ccc(F)c1Cl [Crizotinib] (partner 1 µM)
Outline: as §1

MLN4924 + Dasatinib = compound: NS(=O)(=O)OC[C@@H]1C[C@@H](n2ccc3c(N[C@H]4CCc5ccccc54)ncnc32)C[C@@H]1O [MLN4924] + Cc1nc(Nc2ncc(C(=O)Nc3c(C)cccc3Cl)s2)cc(N2CCN(CCO)CC2)n1 [Dasatinib] (partner 0.075 µM)
Outline: as §1

Cell Line | relative viability (GSK126 + Lapatinib; first compound 0.08 µM) | relative viability (GSK126 + Lapatinib; first compound 0.253 µM) | relative viability (GSK126 + Lapatinib; first compound 0.8 µM) | relative viability (GSK126 + Lapatinib; first compound 2.53 µM) | relative viability (GSK126 + Lapatinib; first compound 8 µM) | relative viability (GSK126 + Crizotinib; first compound 0.08 µM) | relative viability (GSK126 + Crizotinib; first compound 0.253 µM) | relative viability (GSK126 + Crizotinib; first compound 0.8 µM) | relative viability (GSK126 + Crizotinib; first compound 2.53 µM) | relative viability (GSK126 + Crizotinib; first compound 8 µM) | relative viability (MLN4924 + Dasatinib; first compound 0.04 µM) | relative viability (MLN4924 + Dasatinib; first compound 0.1265 µM) | relative viability (MLN4924 + Dasatinib; first compound 0.4 µM) | relative viability (MLN4924 + Dasatinib; first compound 1.265 µM) | relative viability (MLN4924 + Dasatinib; first compound 4 µM)
NCI-H647 | 1.22 | 1.01 | 0.927 | 1.11 | 0.865 | 1.17 | 1.04 | 0.96 | 1.18 | 0.986 | 0.235 | 0.195 | 0.113 | 0.0353 | 0.0361
NCI-H1792 | 0.973 | 0.894 | 0.868 | 0.982 | 0.943 | 1.03 | 1.01 | 1.03 | 0.996 | 0.951 | 0.725 | 0.819 | 1.03 | 0.902 | 0.762
NCI-H2009 | 1.23 | 0.893 | 0.985 | 0.942 | 1.06 | 1.08 | 0.982 | 1.06 | 0.968 | 1.06 | 0.374 | 0.261 | 0.166 | 0.0589 | 0.0792
NCI-H2405 | 1.12 | 1.02 | 1.06 | 1.17 | 1.15 | 0.947 | 0.753 | 0.816 | 0.817 | 0.814 | 0.39 | 0.491 | 0.428 | 0.242 | 0.205
SK-MES-1 | 0.496 | 0.455 | 0.482 | 0.431 | 0.46 | 1.01 | 0.971 | 0.931 | 0.925 | 1.05 | 0.584 | 0.626 | 0.256 | 0.121 | 0.147
NCI-H1563 | 1.1 | 1.04 | 0.957 | 0.999 | 0.869 | 0.922 | 0.755 | 0.848 | 0.78 | 0.718 | 0.67 | 0.819 | 0.714 | 0.446 | 0.426
NCI-H2170 | 0.253 | 0.266 | 0.319 | 0.288 | 0.27 | 1.32 | 1.15 | 1.16 | 1.09 | 1.23 | 0.866 | 0.767 | 0.264 | 0.127 | 0.129
NCI-H322M | 0.616 | 0.638 | 0.604 | 0.654 | 0.66 | 0.965 | 0.887 | 0.833 | 1.03 | 0.873 | 0.311 | 0.655 | 0.693 | 0.27 | 0.289
NCI-H2085 | 0.922 | 0.847 | 0.78 | 0.803 | 0.78 | 0.879 | 0.966 | 0.951 | 0.778 | 0.887 | 0.215 | 0.226 | 0.339 | 0.393 | 0.292
PC-3 [JPC-3] | 0.43 | 0.489 | 0.527 | 0.477 | 0.462 | 0.993 | 0.997 | 0.982 | 0.956 | 1.02 | 1.04 | 1.09 | 0.897 | 0.36 | 0.27
NCI-H1355 | 1.04 | 1.07 | 0.989 | 0.967 | 0.992 | 1.16 | 1.14 | 0.981 | 1.06 | 1.02 | 0.715 | 0.792 | 0.767 | 0.481 | 0.216
NCI-H1650 | 0.828 | 0.798 | 0.739 | 0.854 | 0.755 | 0.886 | 1.03 | 0.917 | 0.826 | 0.888 | 0.41 | 0.291 | 0.267 | 0.166 | 0.179
NCI-H838 | 1.12 | 0.938 | 0.882 | 0.865 | 0.906 | 0.798 | 0.856 | 0.834 | 0.772 | 0.752 | 0.268 | 0.271 | 0.245 | 0.199 | 0.219
NCI-H1755 | 1.1 | 1.07 | 1.04 | 1.01 | 1.1 | 0.842 | 0.915 | 0.898 | 0.86 | 0.765 | 0.417 | 0.464 | 0.463 | 0.237 | 0.221
NCI-H1651 | 0.896 | 0.834 | 0.805 | 0.843 | 0.894 | 0.907 | 0.871 | 0.921 | 0.871 | 0.911 | 0.411 | 0.473 | 0.431 | 0.167 | 0.116
IA-LM | 1 | 0.717 | 0.708 | 0.762 | 0.892 | 0.831 | 1.12 | 0.79 | 0.729 | 0.947 | – | – | – | – | –
ChaGo-K-1 | – | – | – | – | – | 0.998 | 1.09 | 0.976 | 1.14 | 1.12 | 0.414 | 0.376 | 0.323 | 0.184 | 0.17
NCI-H441 | – | – | – | – | – | 0.936 | 0.732 | 0.642 | 0.441 | 0.86 | 0.603 | 0.47 | 0.337 | 0.212 | 0.141
NCI-H1395 | 1.04 | 0.973 | 1.3 | 1.14 | 1.03 | – | – | – | – | – | 0.474 | 0.493 | 0.552 | 0.507 | 0.331
Calu-6 | 1.1 | 1.14 | 1.07 | 1.11 | 1.03 | 0.906 | 0.749 | 0.806 | 0.844 | 0.759 | – | – | – | – | –
NCI-H1703 | 1.08 | 1.14 | 0.917 | 1.23 | 1.09 | 0.806 | 0.313 | 0.42 | 0.592 | 0.583 | – | – | – | – | –
EBC-1 | 0.232 | 0.188 | 0.178 | 0.21 | 0.202 | 0.204 | 0.203 | 0.182 | 0.193 | 0.173 | – | – | – | – | –
SW 900 | – | – | – | – | – | – | – | – | – | – | 0.51 | 0.433 | 0.576 | 0.294 | 0.139
NCI-H522 | – | – | – | – | – | – | – | – | – | – | 0.845 | 0.863 | 0.652 | 0.546 | 0.437
A549 | 1.06 | 1.08 | 0.946 | 0.932 | 0.934 | 0.925 | 0.677 | 0.709 | 0.807 | 0.652 | – | – | – | – | –
